Reference: ChEMBL document CHEMBL3217647, “Prospective use of molecular field points in ligand-based virtual screening: efficient identification of new reversible Cdc25 inhibitors” (Medchemcomm, 2013)

What was measured:
[1] = molecular target: T1, M-phase inducer phosphatase 2 (Homo sapiens, UniProt P30305); test: Inhibition of Cdc25B (unknown origin) phosphatase activity assessed as fluorescence by BMG plate reader in the presence of 0.005% Tween-20
T1 sequence (P30305 whole entry): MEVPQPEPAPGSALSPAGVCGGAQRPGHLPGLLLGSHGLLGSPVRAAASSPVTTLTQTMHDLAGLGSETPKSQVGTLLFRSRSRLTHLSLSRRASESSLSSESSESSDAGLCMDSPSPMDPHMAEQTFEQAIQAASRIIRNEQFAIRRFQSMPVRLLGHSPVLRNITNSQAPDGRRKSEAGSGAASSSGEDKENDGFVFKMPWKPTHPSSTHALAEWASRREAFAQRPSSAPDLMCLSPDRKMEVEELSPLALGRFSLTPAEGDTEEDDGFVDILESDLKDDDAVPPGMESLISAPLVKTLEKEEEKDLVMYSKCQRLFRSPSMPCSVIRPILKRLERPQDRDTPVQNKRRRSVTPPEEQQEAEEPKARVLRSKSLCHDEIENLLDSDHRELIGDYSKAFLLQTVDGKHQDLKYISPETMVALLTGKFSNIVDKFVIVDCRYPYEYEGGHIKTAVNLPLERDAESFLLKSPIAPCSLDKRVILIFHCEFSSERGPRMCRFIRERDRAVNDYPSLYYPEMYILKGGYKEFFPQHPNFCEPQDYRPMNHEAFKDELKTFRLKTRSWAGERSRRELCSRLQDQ

[2] = molecular target: T2, M-phase inducer phosphatase 1 (Homo sapiens, UniProt P30304); test: Inhibition of Cdc25A (unknown origin) phosphatase activity assessed as fluorescence by BMG plate reader in the presence of 0.005% Tween-20
T2 sequence (P30304 whole entry): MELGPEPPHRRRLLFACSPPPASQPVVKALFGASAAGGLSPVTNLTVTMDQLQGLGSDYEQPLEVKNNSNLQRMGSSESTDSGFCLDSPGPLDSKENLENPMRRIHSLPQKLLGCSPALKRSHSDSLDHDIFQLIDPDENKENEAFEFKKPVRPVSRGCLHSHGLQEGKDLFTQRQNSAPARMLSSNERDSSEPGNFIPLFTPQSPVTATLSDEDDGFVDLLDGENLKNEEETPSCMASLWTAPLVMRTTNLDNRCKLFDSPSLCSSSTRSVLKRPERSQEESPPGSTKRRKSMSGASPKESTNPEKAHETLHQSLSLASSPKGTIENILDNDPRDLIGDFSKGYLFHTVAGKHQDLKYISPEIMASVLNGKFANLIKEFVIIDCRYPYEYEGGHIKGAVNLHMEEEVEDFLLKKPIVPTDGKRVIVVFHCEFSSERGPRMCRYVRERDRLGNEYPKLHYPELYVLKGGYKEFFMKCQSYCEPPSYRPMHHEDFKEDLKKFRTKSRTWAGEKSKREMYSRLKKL

[3] = molecular target: T3, Dual specificity protein phosphatase 3 (Homo sapiens, UniProt P51452); test: Inhibition of human His-tagged VHR phosphatase activity assessed as fluorescence by BMG plate reader in the presence of 0.005% Tween-20
[4] = molecular target: T4, M-phase inducer phosphatase 3 (Homo sapiens, UniProt P30307); test: Inhibition of Cdc25C (unknown origin) phosphatase activity assessed as fluorescence by BMG plate reader in the presence of 0.005% Tween-20
T4 sequence (P30307 whole entry): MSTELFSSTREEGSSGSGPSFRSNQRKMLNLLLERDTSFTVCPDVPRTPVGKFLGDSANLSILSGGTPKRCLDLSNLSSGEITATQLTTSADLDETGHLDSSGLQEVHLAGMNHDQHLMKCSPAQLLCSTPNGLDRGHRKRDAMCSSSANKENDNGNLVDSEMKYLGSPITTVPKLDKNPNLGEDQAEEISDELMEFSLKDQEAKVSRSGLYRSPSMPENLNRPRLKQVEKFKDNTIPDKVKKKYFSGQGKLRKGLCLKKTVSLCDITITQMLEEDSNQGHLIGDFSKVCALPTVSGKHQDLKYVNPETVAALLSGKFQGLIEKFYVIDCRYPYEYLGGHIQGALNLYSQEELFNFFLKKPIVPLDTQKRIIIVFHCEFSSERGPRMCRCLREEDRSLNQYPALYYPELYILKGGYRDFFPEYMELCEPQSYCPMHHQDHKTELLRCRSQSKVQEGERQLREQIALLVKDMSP

[5] = molecular target: T1, M-phase inducer phosphatase 2; test: Inhibition of Cdc25B (unknown origin) phosphatase activity assessed as fluorescence by BMG plate reader in the absence of detergent
[6] = molecular target: T2, M-phase inducer phosphatase 1; test: Inhibition of Cdc25A (unknown origin) phosphatase activity assessed as fluorescence by BMG plate reader in the absence of detergent
[7] = molecular target: T4, M-phase inducer phosphatase 3; test: Inhibition of Cdc25C (unknown origin) phosphatase activity assessed as fluorescence by BMG plate reader in the absence of detergent
[8] = molecular target: T3, Dual specificity protein phosphatase 3; test: Inhibition of human His-tagged VHR phosphatase activity assessed as fluorescence by BMG plate reader in the absence of detergent
[9] = species on record: Homo sapiens; test: Inhibition of alkaline phosphatase (unknown origin) phosphatase activity assessed as fluorescence at 100 uM by BMG plate reader in the presence of 0.005% Tween-20
[10] = molecular target: T5, Tyrosine-protein phosphatase non-receptor type 1 (Homo sapiens) (UniProt P18031); test: Inhibition of PTP1B (unknown origin) phosphatase activity assessed as fluorescence at 100 uM by BMG plate reader in the presence of 0.005% Tween-20
T5 sequence (whole entry): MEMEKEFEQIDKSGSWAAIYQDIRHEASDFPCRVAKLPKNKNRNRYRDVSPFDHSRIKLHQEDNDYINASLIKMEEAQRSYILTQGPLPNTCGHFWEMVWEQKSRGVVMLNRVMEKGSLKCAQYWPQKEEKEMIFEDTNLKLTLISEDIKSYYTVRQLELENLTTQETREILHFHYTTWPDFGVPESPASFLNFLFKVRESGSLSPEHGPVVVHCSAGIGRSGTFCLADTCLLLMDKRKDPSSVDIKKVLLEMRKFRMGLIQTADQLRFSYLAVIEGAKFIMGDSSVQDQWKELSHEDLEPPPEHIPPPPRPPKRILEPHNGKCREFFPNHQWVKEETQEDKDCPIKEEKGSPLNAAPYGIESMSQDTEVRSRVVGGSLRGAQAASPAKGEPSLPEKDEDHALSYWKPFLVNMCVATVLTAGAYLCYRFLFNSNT

[11] = species on record: Homo sapiens; test: Inhibition of MKP-5/p38 (unknown origin) phosphatase activity assessed as fluorescence at 100 uM by BMG plate reader in the presence of 0.005% Tween-20

T3 sequence (P51452 whole entry): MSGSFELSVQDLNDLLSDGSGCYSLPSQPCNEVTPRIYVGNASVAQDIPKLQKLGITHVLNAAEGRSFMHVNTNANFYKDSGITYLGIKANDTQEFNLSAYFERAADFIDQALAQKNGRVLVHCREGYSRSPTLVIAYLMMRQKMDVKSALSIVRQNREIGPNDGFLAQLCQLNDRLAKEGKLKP

IC50 [1] [µM]	IC50 [2] [µM]	IC50 [3] [µM]	IC50 [4] [µM]	IC50 [5] [µM]	IC50 [6] [µM]	IC50 [7] [µM]	IC50 [8] [µM]	inhibition [9] [%]	inhibition [10] [%]	inhibition [11] [%]	Compound
4.2	6.9	> 100	8.6								O=C(Nc1cccc(-c2csc(-c3ccccc3)n2)c1)c1cccc(=O)[nH]1
> 100	> 100	> 100	> 100	> 100	17.8	> 100	26.1				O=C(Nc1cccc(-c2csc(-c3ccccc3)n2)c1)c1ccco1
31.3	41.7	40.2	42.6	10.1	4	14.2	2.7	< 50	< 50	< 50	COc1ccccc1-c1nc(-c2ccc3c(c2)CCN3S(C)(=O)=O)cs1
34.4	31.8	40.1	37.8	19	5.6	24.3	8	< 50	< 50	< 50	Cc1cccc(-c2nc(-c3ccc4c(c3)CCN4S(C)(=O)=O)cs2)c1
5.9	12.3	24.9	9.4								O=C(CCC(=O)NC1CCCC1)Nc1nc(-c2cc3ccccc3oc2=O)cs1
17.9	23.6	20.1	47.3	8.9	2.4	10.2	1.9	< 50	< 50	< 50	CCOc1ccc(-c2nc(-c3ccc4[nH]c(=O)[nH]c4c3)cs2)cc1
1.7	2.7	26	9.7								O=S(=O)(Cc1ccco1)Cc1nc(-c2ccc(-c3ccccc3)cc2)cs1
3.1	12.2	> 100	8.8								N#Cc1ccc(-c2csc(-c3ccc(-c4csnn4)cc3)n2)cc1
26.1	42.9	45.4	42.5	17.5	6.5	18	8.1	< 50	< 50	< 50	COc1ccc(-c2nc(-c3ccc4c(c3)CCN4S(C)(=O)=O)cs2)cc1
0.9	20.1	17	8.2								O=C(CCC(=O)Nc1nc(-c2cc3ccccc3oc2=O)cs1)NCc1ccc2c(c1)OCO2
19.7	25	> 100	> 100								COc1ccc(-c2nc(-c3cnc(N)nc3)cs2)cc1
> 100	> 100	> 100	42.2	14.9	10.2	16.8	8.9				COc1ccc(-c2csc(-c3cccc(NC(=O)C4CC4)c3)n2)cc1
> 100	30	61	71.5	13.6	13	31.5	4.4	< 50	< 50	< 50	CCOc1ccc(-c2nc(-c3ccc4ccccc4c3)cs2)cc1
6.8	17.5	> 100									COc1ccc(-c2nc(C(=O)Nc3ccc[nH]c3=O)cs2)cc1
13											CCOC(=O)C1=C(C)N=c2s/c(=C\c3ccc(O)cc3)c(=O)n2C1c1ccc2c(c1)OCO2 (configuration not stated)
16	25.7	> 100	40								O=C(Nc1nc(-c2ccc(F)cc2)cs1)c1cnccn1
5	5		5								O=C1C(=O)c2c(C(=O)c3ccccc3)coc2-c2ccccc21
2											CCOc1ccc(-c2nn(-c3ccccc3)cc2/C=C2\SC(=O)N(C)C2=O)cc1Br
2.69	7.5	65.7	11								O=C(/C=C/c1ccc2c(c1)OCO2)Nc1nc(-c2ccc(F)cc2F)cs1
50	33.6	64.5	47.6	22.7	9.5	> 100	10.6	< 50	< 50	< 50	CCOc1ccc(-c2nc(-c3ccc4c(c3)CC(=O)N4C)cs2)cc1
23.6	31.1	33.3	> 100	12.1	6.4	24.7	8.3	< 50	< 50	< 50	COc1ccc(-c2nc(-c3cc(C)n(CC4CCCO4)c3C)cs2)cc1 (configuration not stated)

Compound	IC50 [1] [µM]	IC50 [2] [µM]	IC50 [3] [µM]	IC50 [4] [µM]	IC50 [5] [µM]	IC50 [6] [µM]	IC50 [7] [µM]	IC50 [8] [µM]	inhibition [9] [%]	inhibition [10] [%]	inhibition [11] [%]
O=c1[nH]c2cc(S(=O)(=O)Nc3cccc(-c4csc(-c5ccccc5)n4)c3)ccc2o1	3.5	2.2	34.8	44.4							
